Measured values taken from patent US20070037846A1, “Pyrazolidinedione derivatives” (ACTELION PHARMACEUTICALS, LTD., priority 2003, published 2007).

target: T1, human P2Y12 receptor (Homo sapiens, UniProt Q9H244); assay: P2Y12 receptor binding assay (displacement of tritium-labeled 2-methyl-S-ADP on CHO cells); conditions: CHO cells with recombinant human P2Y12 receptor, 2 hours at room temperature
T1 construct: expressed in transfected cells; host or cells: CHO (Chinese Hamster Ovary) cells
Description: The ability of the compounds of formulae (I) and (III) to bind to the P2Y12 receptor may be measured by methods similar to those described in Gachet C. et al., Br. J. Hematol. 1995, 91, 434-444 and by the method described below in Example 16.
Chinese Hamster Ovary (CHO) cells with recombinant expression of the human P2Y12 receptor were cultured in 24 well cell-culture plates. Cells were washed three times with binding buffer (50 mM Tris pH 7.4, 100 mM NaCl, 1 mM EDTA, 0.5% BSA). The cells were then incubated with 0.5 ml per well binding buffer containing tritium-labeled 2-methyl-thio-adenosine 5′-diphosphate (2-methyl-S-ADP) (between 100'000 and 300'000 dpm per well) and various concentrations of test compounds. After incubation at room temperature for 2 hours, cells were washed three times with binding buffer. Then, cells were solubilized by addition of 0.5 ml solubilization buffer (SDS, NaOH, EDTA). The content of each well was then transferred into beta-counter vials and 2.0 ml of Ultima Gold Scintillation liquid was added.
The test is conducted as described hereinabove. […] Exemplary IC50 values are given below.

T1 sequence (Q9H244 whole entry): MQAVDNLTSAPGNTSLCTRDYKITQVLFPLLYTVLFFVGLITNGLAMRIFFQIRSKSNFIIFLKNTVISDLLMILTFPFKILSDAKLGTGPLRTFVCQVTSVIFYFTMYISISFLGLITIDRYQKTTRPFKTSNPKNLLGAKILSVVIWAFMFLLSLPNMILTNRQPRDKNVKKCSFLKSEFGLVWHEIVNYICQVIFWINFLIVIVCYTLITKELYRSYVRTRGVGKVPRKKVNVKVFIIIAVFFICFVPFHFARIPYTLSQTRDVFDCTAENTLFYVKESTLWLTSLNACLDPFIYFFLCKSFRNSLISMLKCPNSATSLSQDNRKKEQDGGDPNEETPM

Structure (SMILES)	IC50
CCCOc1ccc(C=C2C(=O)NNC2=O)c(OCCC)c1C [Example 12a9, 4-(3-Methyl-2,4-dipropoxy-benzylidene)-pyrazolidine-3,5-dione]	40 nM
CCCOc1ccc(C=C2C(=O)NN(c3ccccn3)C2=O)c(C)c1C [Example 4a2, 4-(2,3-Dimethyl-4-propoxy-benzylidene)-1-pyridin-2-yl-pyrazolidine-3,5-dione]	140 nM
CCCOc1ccc(C=C2C(=O)NN(c3ccc(F)cc3)C2=O)c(C)c1C [Example 8a, 4-(2,3-Dimethyl-4-propoxy-benzylidene)-1-(4-fluoro-phenyl)-pyrazolidine-3,5-dione]	83 nM
CCCOc1ccc(C=C2C(=O)NN(c3ccccc3)C2=O)c2c1CCCC2 [Example 2a25, 1-Phenyl-4-(4-propoxy-5,6,7,8-tetrahydro-naphthalen-1-ylmethylene)-pyrazolidine-3,5-dione]	30 nM
CCCOc1ccc(C=C2C(=O)NNC2=O)c2c1CCCC2 [Example 12a3, 4-(4-Propoxy-5,6,7,8-tetrahydro-naphthalen-1-ylmethylene)-pyrazolidine-3,5-dione]	55 nM
CCCOc1ccc(C=C2C(=O)NN(c3ccccc3)C2=O)c(OCCCCO)c1C [Example 2a43, 4-[1-[2-(4-Hydroxy-butoxy)-3-methyl-4-propoxy-phenyl]-methylidene]-1-phenyl-pyrazolidine-3,5-dione]	5 nM
CCCOc1ccc(C=C2C(=O)NN(c3ccccc3)C2=O)c(C)c1C [Example 1, 4-(2,3-Dimethyl-4-propoxy-benzylidene)-1-phenyl-pyrazolidine-3,5-dione]	24 nM
CCCOc1ccc(C=C2C(=O)NN(C(C)=O)C2=O)c(C)c1C [Example 15, 1-Acetyl-4-[1-(2,3-dimethyl-4-propoxy-phenyl)-methylidene]-pyrazolidine-3,5-dione]	9600 nM
COc1ccc(C=C2C(=O)NN(c3ccccc3)C2=O)c(C)c1C [Example 2a7, 4-(2,3-Dimethyl-4-methoxy-benzylidene)-1-phenyl-pyrazolidine-3,5-dione]	190 nM
CCOc1ccc(C=C2C(=O)NN(c3ccccc3)C2=O)cc1C [Example 2a12, 4-(4-Ethoxy-3-methyl-benzylidene)-1-phenyl-pyrazolidine-3,5-dione]	470 nM
CCCOc1ccc(C=C2C(=O)NN(c3ccccc3)C2=O)c(OCCC)n1 [Example 2a35, 4-[1-(2,6-Dipropoxy-pyridin-3-yl)-methylidene]-1-phenyl-pyrazolidine-3,5-dione]	370 nM

The next lines start with the values.

IC50	Structure (SMILES)
1 nM	CCCOc1ccc(C=C2C(=O)NN(c3ccccc3)C2=O)c(OC[C@H](O)CC(=O)O)c1C [Example 2a63, 4-[1-[2-((2R)-3-Carboxy-2-hydroxy-propoxy)-3-methyl-4-propoxy-phenyl]-methylidene]-1-phenyl-pyrazolidine-3,5-dione]
1.6 nM	CCCOc1ccc(C=C2C(=O)NN(c3ccccc3)C2=O)c(OCCCCC(=O)O)c1C [Example 2a52, 4-[1-[2-(4-Carboxy-butyloxy)-3-methyl-4-propoxy-phenyl]-methylidene]-1-phenyl-pyrazolidine-3,5-dione]
3 nM	CCCOc1ccc(C=C2C(=O)NN(c3ccccc3)C2=O)c(OC[C@H](O)[C@@H](O)C(=O)O)c1C [Example 2a71, 4-[1-[2-((2S,3R)-3-carboxy-2,3-dihydroxy-propoxy)-3-methyl-4-propoxy-phenyl]-methylidene]-1-phenyl-pyrazolidine-3,5-dione]
0.8 nM	CCCOc1ccc(C=C2C(=O)NN(c3ccccc3)C2=O)c(OC[C@@H](O)CC(=O)O)c1C [Example 2a64, 4-[1-[2-((2S)-3-Carboxy-2-hydroxy-propoxy)-3-methyl-4-propoxy-phenyl]-methylidene]-1-phenyl-pyrazolidine-3,5-dione]
15 nM	CCCOc1ccc(C=C2C(=O)NN(c3ccccc3)C2=O)c(OCCOC)c1C [Example 2a39, 4-[1-[2-(2-Methoxy-ethoxy)-3-methyl-4-propoxy-phenyl]-methylidene]-1-phenyl-pyrazolidine-3,5-dione]
10 nM	CCCOc1ccc(C=C2C(=O)NN(c3ccccc3)C2=O)c2cnccc12 [Example 2a30, 1-Phenyl-4-[1-(5-propoxy-isoquinolin-8-yl)-methylidene]-pyrazolidine-3,5-dione]
